According to article PMC8000840, “Novel IMB16-4 Compound Loaded into Silica Nanoparticles Exhibits Enhanced Oral Bioavailability and Increased Anti-Liver Fibrosis In Vitro” (Molecules, 2021):
Values after ≈ are worked out from the molar mass of the structure shown.

Assays:
NAFLD model rats = system: NAFLD model rats; set-up: method as in PMID 23752471, PMID 30573812; conditions: NAFLD model rats ref 18, 19; cited from earlier work
[1] = Equilibrium concentration (solubility) study in water; type: physicochemical; conditions: distilled water; raw IMB16-4 in water, 25 ± 2 °C, equilibrium about 24 h
Experimental: An excess amount of raw IMB16-4 was added into 5 mL of distilled water at 25 ± 2 °C. The raw IMB16-4 solution at equilibrium time (about 24 h) was withdrawn and filtered using a 0.22 μm membrane. The subsequent filtrate was diluted with internal standard (4′-Chloroacetanilide) acetonitrile solution and analyzed by HPLC-MS/MS analysis (Thermo LTQ XL, USA). The standard curve for IMB16-4 was the linear (R^2 > 0.992) over the concentration range of 0.3~1200.0 ng/mL. The quantitative ion pair of IMB16-4 and internal standard quantitative were m/z = 499.9/196.0 and m/z = 168.04/126.1, respectively.

[2] = In vitro dissolution, USP II paddle method; type: physicochemical; conditions: release medium, 12 h, 37 °C, 3% SDS
Experimental: Dissolution studies were conducted using a USP II paddle method (100 rpm, 37 °C, and 900 mL dissolution medium) with a dissolution tester (ZRS-8LD, China). The release of IMB16-4 and IMB16-4-MSNs was performed in pH 1.0 hydrochloric acid solution and pH 6.8 phosphate buffer solutions, containing 3% (w/v) SDS, respectively. All release studies were carried out in triplicate. At predetermined time intervals, 5 mL of sample solution was withdrawn from the release medium and filtered using a 0.22 μm membrane filter before running the HPLC analysis. An equivalent amount of fresh medium was added to maintain a constant dissolution volume.

[3] = system: α-SMA, TGF-β1 and MMP2 protein levels in LX-2 cells; assay: In vitro antifibrotic effects, Western blot of hepatic fibrogenic markers after TGFβ1 stimulation; type: cell-based, human; conditions: IMB16-4 2 µM, TGFβ1 2 ng/mL, 24 h
Experimental: After ultraviolet sterilization, raw IMB16-4, IMB16-4-MSNs and MSNs were suspended in water, respectively. Another group of raw IMB16-4 was suspended in DMSO. The concentration of IMB16-4 was 2 mM. Then, 2µL of solution containing IMB16-4 was added into 2 mL of serum-free culture with TGFβ1. LX-2 cells were cultured as described above. LX-2 cells were seeded in a 6-well plate, cultured in DMEM/GlutaMAX I, containing 10% fetal bovine serum (FBS) in 5% CO2 atmosphere at 37 °C. Serum-free culture was replaced until the cells reached 90 ≈ 95% confluence. After 24 h, cells were treated with TGFβ1 (2 ng/mL) and IMB16-4 (2 µM) for 24 h. Then, cells were washed with phosphate buffer saline (PBS) and protein was extracted in radio-immunoprecipitation assay (RIPA) buffer. Then mixture was centrifuged at 12,000 rpm at 4 °C for 20 min. The supernatant was collected, and the total protein was determined using the bicinchoninic acid (BCA) protein assay kit (Beyotime Biotechnology, China). Samples were applied to the 10% SDS-PAGE gel. Then, the protein bands were transferred to a polyvinylidene difluoride (PVDF) membrane (Millipore Corp, Atlanta, GA, USA) and the membrane was blocked for 1 h with 5% nonfat milk. […] The protein bands were analyzed on an imager (Tanon5200, China).

[4] = Oral pharmacokinetics study; type: in vivo, Sprague–Dawley (SD) rats; conditions: SD rats, oral gavage 100 mg/kg
Experimental: The mice were maintained under a specific pathogen-free (SPF) environment with a 12 h light/dark cycle. SD rats (body weight 200 ± 20 g) were fasted overnight and divided into two groups. Raw IMB16-4 and IMB16-4-MSNs were given orally by gavages at a dose of 100 mg/kg, respectively. Before administering, both IMB16-4-MSNs and raw IMB16-4 were dispersed in 0.5% CMC-Na aqueous solution, respectively. Blood samples were collected from the eye socket vein at time points of 0.17, 0.5, 1, 2, 3, 4, 6, 8 and 12 h after dosing. Plasma samples were collected by centrifuging at 3000 rpm for 10 min and were then stored at −20 °C until analysis. Plasma samples were mixed with internal standard (4′-Chloroacetanilide) acetonitrile solution. Then, the mixture was vortex-mixed for 10 s. After centrifugation at 15,000 rpm for 10 min, the supernatant was used for HPLC-MS/MS analysis (AB SCIEX 6500 Qtrap, USA). The condition of the capillary voltage was −4500 V. The temperature was 500 °C. The mobile phase comprised acetonitrile and 10 mM of ammonium acetate aqueous solution. Analysis was carried out on an Xselect HSS T3 column (2.1 × 100 mm, 2.5 μm, Waters) in gradient elution. The column temperature was 40 °C and the flow rate was 0.3 mL/min. The standard curve for IMB16-4 was the linear (R^2 > 0.992) over the concentration range of 4~2048 ng/mL. The quantitative ion pairs of IMB16-4 and internal standard quantitative were m/z = 500.0/195.7 and m/z = 168.0/126.1, respectively. The pharmacokinetic parameters were obtained using statistic software DAS2.0.

| Molecule | hepatoprotective effects (NAFLD model rats) | solubility [1] [µg/mL] | amount of dissolved IMB16-4 [2] | protein levels of α-SMA, TGF-β1 and MMP2 (antifibrotic effect) ([3]; dissolved by DMSO) | protein levels of α-SMA, TGF-β1 and MMP2 (antifibrotic effect) ([3]; suspended in sterile water) | CLz/F [4] | Tmax ([4]; Sprague-Dawley, rat, plasma) [h] | Cmax ([4]; Sprague-Dawley, rat, plasma, in 0.5% CMC-Na) [ng/mL] | AUC ([4]; Sprague-Dawley, rat, plasma, read-out: AUC0≈12 h) [ng·h/mL] | MRT ([4]; Sprague-Dawley, rat, plasma, read-out: MRT0≈12 h) [h] |
| --- | --- | --- | --- | --- | --- | --- | --- | --- | --- | --- |
| N-(3,4-dichlorophenyl)-2-(3-trifluoromethoxy) benzamide [IMB17-15] | has hepatoprotective effects | – | – | – | – | – | – | – | – | – |
| O=C(Nc1cc(Cl)c(Cl)c(Cl)c1)c1ccccc1NS(=O)(=O)c1cccc([N+](=O)[O-])c1 [IMB16-4, N-(3,4,5-trichlorophenyl)-2(3-nitrobenzenesulfonamido) benzamide] | – | 0.0432 ± 0.0091 (≈ 0.0863 µM) | about 40% | showed potential anti-liver fibrosis effects. However, the differences are not significant | poor inhibition effect | 54.70 ± 23.57 | 3.43 ± 1.4 | 180 ± 40 | 1240 ± 310 | 5.18 ± 0.77 |
